Peptide text beside a SMILES is read from it. * marks the point of attachment. Cbz = O=C(OCc1ccccc1)*
Legend:
Ax20 peptidase = experiment: Substrate specificity of recombinant Ax20 peptidase, cleavage by thin layer chromatography; assay type: biochemical, Corynebacterium sp. Ax20; parameters: key: (+++) indicating >80% cleavage of a 1 mM solution by 0.1 μg/ml peptidase during an incubation for 1 h; (++) indicates complete cleavage of a 1 mM solution by 1 μg/ml peptidase during an incubation for 1 h; (+) indicates partial cleavage (20-80%) of a 1 mM solution by 1 μg/ml peptidase during an incubation for 1 h; (−) indicating the absence of any cleavage; conditions: 1 mM solution, 0.1 or 1 μg/ml peptidase, incubation 1 h
Protocol: The recombinant Ax20 peptidase formed as described in example 3 (affinity column purified tagged enzyme) was incubated with different compounds, in particular potential candidate dipeptide substrates, to characterize the substrate specificity and to identify substrates useful for screening assays (for example to screen for modulators including inhibitors).
The table below lists the tested compounds (mostly dipeptides indicated by their short names, e.g. ala-gly for an alanine-glycine dipeptide) and indicates whether they are cleaved by the peptidase. Z indicates a benzyloxy-carbonyl protecting group at the N-terminus of the peptide.
Cleavage was determined by thin layer chromatography.
Amounts are qualitative with (+++) indicating >80% cleavage of a 1 mM solution by 0.1 μg/ml peptidase during an incubation for 1 h; (++) indicates complete cleavage of a 1 mM solution by 1 μg/ml peptidase during an incubation for 1 h and (+) indicates partial cleavage (20-80%) of a 1 mM solution by 1 μg/ml peptidase during an incubation for 1 h and (−) indicating the absence of any cleavage.

C. jeikeium K411 extract = experiment: Inhibition of malodourant release by C. jeikeium K411 extract; assay type: biochemical, Corynebacterium jeikeium K411; conditions: o-phenantrolin 0.5 mM, Complete at manufacturer's use concentration, 10 min pre-incubation
Protocol: (§1) Extracts from C. sp. Ax20 and C. jeikeium K411 were formed as described in example 1.
(§2) O-phenantrolin (0.5 mM), a metallopeptidase inhibitor, or Complete™ (EDTA free), a protease inhibitor mix (Roche biochemicals, Switzerland; use concentration as indicated by the manufacturer) that contains broad specificity serine and […] inhibitors but no metallopeptidase inhibitors were added to batches of the extracts and incubated for 10 min.
(§3) The cys-conjugate or the cys-gly-conjugate (1 mM), both precursors for the malodourant 3-sulfanyl-3-methyl-hexanol, were then added to the C. sp. Ax20 or C. jeikeium K411 extracts containing the different inhibitors.
(§4) The release of the malodourant 3-sulfanyl-3-methyl-hexanol, which indicates enzyme activity in the Corynebacteria cell lysates, was measured as described in examples 12 and 13.
(§5) The results (in % inhibition of 3-sulfanyl-3-methyl-hexanol release compared to reactions without added inhibitors) are indicated in the table below.

[1] = test system: peptidase (SEQ ID NO:2) and β-lyase; experiment: Inhibition of free SH release from S-benzyl-cys-gly by peptidase plus β-lyase, monobromobimane detection; assay type: biochemical, Corynebacterium sp. Ax20; conditions: peptidase 0.1 μg/ml, β-lyase 5 μg/ml
Protocol: For the results shown below (S-benzyl)-cys-gly was used.
Instead of derivatising the free NH2 group of the conjugate by adding Fluram, the free SH group released from the conjugate by the subsequent action of both enzymes was derivatised by adding monobromobimane (Fluka, Buchs, Switzerland) dissolved in a NaCO3 buffer (100 mM, pH 8.8) to give a final concentration of 0.5 mM to 1 mM. After 5 to 15 min incubation the fluorescence was measured on a Flex-station (Molecular devices, Sunnyvale, Calif., USA) with an excitation wavelength of 385 nm and an emission wavelength of 480 nm.

[2] = molecular target: T1, AMRE enzyme (Nα-acyl-glutamine-aminoacylase) (Corynebacterium striatum, UniProt Q8GGD4); experiment: Inhibition of AMRE-catalysed release of free NH2 groups from N-Lauroyl-glutamine; assay type: biochemical
T1 construct: made in house
Protocol: In an additional step to example 7 or 8, the identified peptidase inhibitors were tested for their modulating effect against the AMRE enzyme (Nα-acyl-glutamine-aminoacylase described by Natsch in EP1258531), thereby identifying dual inhibitors of both metallopeptidase enzymes involved in malodour release.
AMRE is formed as described in example 6 of EP1258531.

[3] = test system: Ax20 peptidase (SEQ ID NO: 2); experiment: Inhibition of Pro-Gly cleavage by recombinant Ax20 peptidase, fluorescamine detection of free NH2; assay type: biochemical, Corynebacterium sp. Ax20; conditions: Pro-Gly 1 mM, 1 μg/ml peptidase, 60 min at 37° C.
Protocol: Cleavage of the peptide substrate Pro-Gly by addition of the recombinant Ax20 peptidase (SEQ ID NO: 2) released a unique free NH2 group which can be derivatized by fluorescamine (Fluram™, Fluka, Buchs, Switzerland). Test compounds (for example, potential enzyme inhibitors) are dissolved in dimethylsulfoxid (DMSO), for example in individual wells of a microtiter plate. […] Controls are run in parallel and subjected to the same procedure. A positive control contains DMSO without inhibitor, a negative control contains no substrate.

C. sp. Ax20 extract = experiment: Inhibition of malodourant release by C. sp. Ax20 extract; assay type: biochemical, Corynebacterium sp. Ax20; conditions: o-phenantrolin 0.5 mM, Complete at manufacturer's use concentration, 10 min pre-incubation
Protocol: as §1, §2, §3, §4, §5

β-lyase = molecular target: T2, β-lyase (Corynebacterium striatum, UniProt Q64HC5); experiment: Cleavage of conjugates by β-lyase, release of 3-sulfanyl-3-methyl-hexanol by gas chromatography; assay type: biochemical, Corynebacterium sp. Ax20; conditions: conjugate 1 mM incubated with β-lyase
T2 construct: made in house
Protocol: The test compounds (Cys-conjugate (1 mM) or Cys-Gly-conjugate (1 mM)) were incubated with β-lyase.
(§6) Cleavage was measured by gas chromatography to determine the release of 3-sulfanyl-3-methyl-hexanol in mM.

C. sp. Ax 20 extract = experiment: Cleavage of conjugates by Corynebacterium sp. Ax20 cellular extract, release of 3-sulfanyl-3-methyl-hexanol by gas chromatography; assay type: biochemical; conditions: conjugate 1 mM incubated with C. sp. Ax 20 extract for 24 h
Protocol: The test compounds (cys-conjugate (1 mM) or cys-gly-conjugate (1 mM)) were incubated also with the wild-type strain Corynebacterium sp. Ax20 extract naturally containing the peptidase of SEQ ID NO:2. Corynebacterium sp. Ax20 cellular extract was prepared as described in example 1. The resulting extract was diluted to the same volume as the original culture has had when adjusted to an optical density of OD 4. The substrate was incubated with the extract for 24 h.
as §6

T1 sequence (Q8GGD4 whole entry): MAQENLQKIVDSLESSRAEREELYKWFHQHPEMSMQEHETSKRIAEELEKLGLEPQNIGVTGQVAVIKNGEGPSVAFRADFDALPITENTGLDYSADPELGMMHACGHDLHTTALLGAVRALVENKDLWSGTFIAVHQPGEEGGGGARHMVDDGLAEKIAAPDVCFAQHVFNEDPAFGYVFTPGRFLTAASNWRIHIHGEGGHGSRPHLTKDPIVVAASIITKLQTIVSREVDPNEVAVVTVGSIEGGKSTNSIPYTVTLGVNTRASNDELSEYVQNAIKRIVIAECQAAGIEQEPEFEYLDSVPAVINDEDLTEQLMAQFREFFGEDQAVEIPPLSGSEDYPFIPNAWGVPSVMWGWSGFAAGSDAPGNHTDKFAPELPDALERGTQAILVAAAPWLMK
T2 sequence (Q64HC5 whole entry): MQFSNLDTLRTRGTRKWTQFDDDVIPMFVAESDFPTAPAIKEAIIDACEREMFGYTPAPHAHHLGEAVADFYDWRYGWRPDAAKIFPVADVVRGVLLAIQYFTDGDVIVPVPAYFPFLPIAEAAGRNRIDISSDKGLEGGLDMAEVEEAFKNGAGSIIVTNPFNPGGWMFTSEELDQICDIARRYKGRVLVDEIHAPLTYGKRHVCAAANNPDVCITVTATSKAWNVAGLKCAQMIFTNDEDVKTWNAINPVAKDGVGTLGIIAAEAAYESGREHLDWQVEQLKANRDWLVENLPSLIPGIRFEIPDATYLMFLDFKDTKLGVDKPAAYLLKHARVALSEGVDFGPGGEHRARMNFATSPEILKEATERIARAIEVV

Row | SMILES | Cleavage (Ax20 peptidase) | Inhibition of release of free SH groups from S-benzyl-cys-gly in presence of peptidase and β-lyase ([1]; test compound 15.625 microM) | Inhibition of release of free SH groups from S-benzyl-cys-gly in presence of peptidase and β-lyase ([1]; test compound 31.25 microM) | Inhibition of release of free SH groups from S-benzyl-cys-gly in presence of peptidase and β-lyase ([1]; test compound 62.5 microM) | Inhibition of release of free NH2 groups from N-Lauroyl-glutamine (catalyzed by AMRE) ([2]; test compound 15.625 microM) | Inhibition of release of free NH2 groups from N-Lauroyl-glutamine (catalyzed by AMRE) ([2]; test compound 31.25 microM) | Inhibition of release of free NH2 groups from N-Lauroyl-glutamine (catalyzed by AMRE) ([2]; test compound 62.5 microM) | Inhibition of release of free NH2 groups from Pro-Gly ([3]; test compound 15.625 microM) | Inhibition of release of free NH2 groups from Pro-Gly ([3]; test compound 31.25 microM) | Inhibition of release of free NH2 groups from Pro-Gly ([3]; test compound 62.5 microM) | other results
1 | CC(N)C(=O)NC(C)C(=O)O (centres unmarked) [Ala-Ala] | ++ |  |  |  |  |  |  |  |  |  | 
2 | NC(CSCc1ccccc1)C(=O)NCC(=O)O (centres unmarked) [H-Cys(Bzl)-Gly-OH, S-benzyl-Cys-Gly] | +++ ((+++) indicating >80% cleavage of a 1 mM solution by 0.1 μg/ml peptidase during an incubation for 1 h) |  |  |  |  |  |  |  |  |  | 
3 | NCC(=O)NCC(=O)O [Gly-Gly] (H-Gly-Gly-OH) | + ((+) indicates partial cleavage (20-80%) of a 1 mM solution by 1 μg/ml peptidase during an incubation for 1 h) |  |  |  |  |  |  |  |  |  | 
4 | c1cnc2c(c1)ccc1cccnc12 [o-Phenantrolin] |  | 54.2 % inhibition | 79.9 % inhibition | 93.1 % inhibition | 42.4 % inhibition | 81.8 % inhibition | 96.1 % inhibition | 83.9 % inhibition | 95.5 % inhibition | 100.0 % inhibition | % inhibition of 3-sulfanyl-3-methyl-hexanol release compared to reactions without added inhibitors (C. jeikeium K411 extract; substrate Cys-Gly-conj. 1 mM): 93 % inhibition; % inhibition of 3-sulfanyl-3-methyl-hexanol release compared to reactions without added inhibitors (C. jeikeium K411 extract; substrate Cys-conj. 1 mM): 13 % inhibition; % inhibition of 3-sulfanyl-3-methyl-hexanol release compared to reactions without added inhibitors (C. sp. Ax20 extract; substrate Cys-Gly-conj. 1 mM): 100 % inhibition; % inhibition of 3-sulfanyl-3-methyl-hexanol release compared to reactions without added inhibitors (C. sp. Ax20 extract; substrate Cys-conj. 1 mM): 0 % inhibition
5 | O=C(O)CNC(=O)CNC(=O)OCc1ccccc1 [Z-Gly-Gly] (Cbz-Gly-Gly-OH) | − |  |  |  |  |  |  |  |  |  | 
6 | O=C(O)CNC(=O)C1CCCN1 (centres unmarked) [Pro-Gly] | + ((+) indicates partial cleavage (20-80%) of a 1 mM solution by 1 μg/ml peptidase during an incubation for 1 h) |  |  |  |  |  |  |  |  |  | 
7 | C[C@H](NC(=O)OCc1ccccc1)C(=O)O [Z-Ala] | − |  |  |  |  |  |  |  |  |  | 
8 | CCCC(C)(CCO)SC[C@H](N)C(=O)O (some centres unmarked) [cys-conjugate] |  |  |  |  |  |  |  |  |  |  | release of 3-sulfanyl-3-methyl-hexanol from the conjugate (β-lyase): 0.59 mM; release of 3-sulfanyl-3-methyl-hexanol from the conjugate (C. sp. Ax 20 extract): 0.31 mM
9 | O=C(O)CN(CCN(CC(=O)O)CC(=O)O)CC(=O)O [Ethylenediaminetetraacetic acid] |  | 99.3 % inhibition | 96.5 % inhibition | 99.0 % inhibition | 62.4 % inhibition | 59.8 % inhibition | 61.6 % inhibition | 101.0 % inhibition | 102.6 % inhibition | 101.4 % inhibition | 
10 | O=C(O)c1cccc(C(=O)O)n1 [pyridine-2,6-dicarboxylic acid] |  | 49.6 % inhibition | 83.4 % inhibition | 95.9 % inhibition | 28.8 % inhibition | 52.0 % inhibition | 72.2 % inhibition | 72.4 % inhibition | 92.4 % inhibition | 100.9 % inhibition | 
11 | O=C(O)CNCCNCC(=O)O [ethylendiamine-N,N′-diacetic acid] |  | 50.2 % inhibition | 73.1 % inhibition | 90.4 % inhibition | 7.4 % inhibition | 7.2 % inhibition | 42.7 % inhibition | 65.7 % inhibition | 81.0 % inhibition | 93.9 % inhibition | 
12 | CC(N)C(=O)NCC(=O)O (centres unmarked) [Ala-Gly] | ++ |  |  |  |  |  |  |  |  |  | 
13 | O=C(O)CNC(=O)OCc1ccccc1 [Z-Gly] | − |  |  |  |  |  |  |  |  |  | 
14 | O=C(O)CSCCSCC(=O)O [2,2′-Ethylendithio-diacetic acid] |  | −10.1 % inhibition | −9.1 % inhibition | −8.7 % inhibition | 22.4 % inhibition | 12.7 % inhibition | 19.6 % inhibition | 0.1 % inhibition | −2.6 % inhibition | −5.3 % inhibition | 
